This is an account of results in patent publication US20230233569A1 (Revolution Medicines, Inc., priority 2020, published 2023).

Read-outs that look alike come from different tables or passages of the source.

A word on the IC50: it is the concentration that inhibits the measured activity by half. For orientation: EC50 means the concentration that produces a half-maximal response.

One assay has as its target KRAS G12C (Homo sapiens, UniProt P01116+P62937, G12C). Put plainly: Ras-Raf disruption / FRET / MOA assay (BRAF RBD). The format is biochemical. As to conditions: KRAS G12C FRET data IC50, Ras-Raf disruption, with Cyclophilin A. A digest of the protocol: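 His6-K-Ras G12C-GMPPNP (12.5 nM), GST-BRAF RBD (50 nM) and tagless Cyclophilin A (25 μM) incubated 3 h at 25 °C with compound (10-point 3-fold series from 30 μM), pH 7.3 HEPES buffer. Anti-His Eu/anti-GST APC added for 1.5 h; decreased TR-FRET ratio vs DMSO gives IC50.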

For assay [1], the system named is AsPC-1 (K-Ras G12D). Put plainly: CellTiter-Glo cell viability assay. The format is cell-based. The conditions noted are these: Homo sapiens, ASPC1, 120 h. The protocol:
Determination of Cell Viability in RAS Mutant Cancer Cell Lines
Protocol: CellTiter-Glo® Cell Viability Assay
Note—The following protocol describes a procedure for monitoring cell viability of K-Ras mutant cancer cell lines in response to a compound of the invention. Other RAS isoforms may be employed, though the number of cells to be seeded will vary based on cell line used.
Test compounds (132.5 nL) were directly dispensed into the assay plates containing cells. […] On day 5, assay plates and their contents were equilibrated to room temperature for approximately 30 minutes. […] Luminescence was measured using the PerkinElmer Enspire. Data were normalized by the following: (Sample signal/Avg. DMSO)*100. The data were fit using a four-parameter logistic fit.
For orientation: ATP-based viability assays read luminescence as a measure of living cells.

The target in a further assay is KRAS WT (Homo sapiens, UniProt P01116+P62937). In words: Ras-Raf disruption / FRET / MOA assay (BRAF RBD). The format is biochemical. As to conditions: KRAS WT FRET data IC50, Ras-Raf disruption, with Cyclophilin A. Put shortly:
(§1)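 TR-FRET in 25 mM HEPES pH 7.3, 100 mM NaCl, 5 mM MgCl2, 0.1% BSA, 0.002% Tween20 with 25 μM Cyclophilin A, 12.5 nM His6-Ras-GMPPNP, 50 nM GST-BRAF RBD; compound 10-point 3-fold series from 30 μM. After 3 h at 25 °C, Eu anti-His/APC anti-GST added for 1.5 h; IC50 from ratio decrease versus DMSO.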

The target of another assay is NRAS Q61R (Homo sapiens, UniProt P01111+P62937, Q61R). In words: Ras-Raf disruption / FRET / MOA assay (BRAF RBD). The assay is classed as biochemical. A digest of the protocol:
as §1

For the next assay, the target named is KRAS Q61H (Homo sapiens, UniProt P01116+P62937, Q61H). Put plainly: Ras-Raf disruption / FRET / MOA assay (BRAF RBD). The assay is classed as biochemical. A digest of the protocol:
as §1

For a further assay, the target named is KRAS G13C (Homo sapiens, UniProt P01116+P62937, G13C). Put plainly: Ras-Raf disruption / FRET / MOA assay (BRAF RBD). The assay is classed as biochemical. The conditions noted are these: KRAS G13C FRET data IC50, Ras-Raf disruption, with Cyclophilin A. A digest of the protocol:
as §1

A further assay concerns the target NRAS WT (Homo sapiens, UniProt P01111+P62937). In words: Ras-Raf disruption / FRET / MOA assay (BRAF RBD). The format is biochemical. Put shortly:
as §1

The next assay deals with KRAS G13D (Homo sapiens, UniProt P01116+P62937, G13D). In words: Ras-Raf disruption / FRET / MOA assay (BRAF RBD). The format is biochemical. As to conditions: KRAS G13D FRET data IC50, Ras-Raf disruption, with Cyclophilin A. A digest of the protocol:
as §1

In the next assay the target is NRAS G12C (Homo sapiens, UniProt P01111+P62937, G12C). In words: Ras-Raf disruption / FRET / MOA assay (BRAF RBD). The format is biochemical. As to conditions: NRAS G12C FRET data IC50, NRAS G12C. Put shortly:
as §1

A further assay has as its target KRAS G12S (Homo sapiens, UniProt P01116+P62937, G12S). In words: Ras-Raf disruption / FRET / MOA assay (BRAF RBD). The format is biochemical. The conditions noted are these: KRAS G12S FRET data IC50, Ras-Raf disruption, with Cyclophilin A. A digest of the protocol: as §1
The next assay has as its target KRAS G12V (Homo sapiens, UniProt P01116+P62937, G12V). Put plainly: Ras-Raf disruption / FRET / MOA assay (BRAF RBD). The format is biochemical. The conditions noted are these: KRAS G12V FRET data IC50, Ras-Raf disruption, with Cyclophilin A. Put shortly: as §1
The next assay has as its target KRAS G12D (Homo sapiens, UniProt P01116+P62937, G12D). Put plainly: Ras-Raf disruption / FRET / MOA assay (BRAF RBD). The assay is classed as biochemical. As to conditions: KRAS G12D FRET data IC50, Ras-Raf disruption, with Cyclophilin A. Put shortly:
as §1

The target in the next assay is NRAS Q61K (Homo sapiens, UniProt P01111+P62937, Q61K). Put plainly: Ras-Raf disruption / FRET / MOA assay (BRAF RBD). The format is biochemical. A digest of the protocol: as §1
NRAS Q61K, sequence (P01111 whole entry Q61K): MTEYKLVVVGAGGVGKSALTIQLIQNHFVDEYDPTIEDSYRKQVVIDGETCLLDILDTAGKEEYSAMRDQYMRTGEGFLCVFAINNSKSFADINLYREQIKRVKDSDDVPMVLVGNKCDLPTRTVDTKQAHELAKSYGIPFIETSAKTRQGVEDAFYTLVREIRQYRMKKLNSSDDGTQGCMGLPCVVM
NRAS Q61K, sequence (P62937 whole entry): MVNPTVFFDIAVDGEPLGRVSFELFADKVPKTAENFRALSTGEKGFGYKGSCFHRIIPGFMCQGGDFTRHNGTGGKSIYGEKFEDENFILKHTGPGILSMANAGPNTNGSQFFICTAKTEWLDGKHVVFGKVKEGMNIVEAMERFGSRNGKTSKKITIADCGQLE
Assay [2] relates to AsPC-1 (K-Ras G12D). In words: Potency assay: pERK. The format is cell-based. The conditions noted are these: Homo sapiens.
Where [3] appears, read: read-out: AsPC-1 Cell Viability assay data IC50, K-Ras G12D, 5-day treatment.

KRAS G12S, sequence (P01116 1-169 isoform P01116-2 G12S limits assumed): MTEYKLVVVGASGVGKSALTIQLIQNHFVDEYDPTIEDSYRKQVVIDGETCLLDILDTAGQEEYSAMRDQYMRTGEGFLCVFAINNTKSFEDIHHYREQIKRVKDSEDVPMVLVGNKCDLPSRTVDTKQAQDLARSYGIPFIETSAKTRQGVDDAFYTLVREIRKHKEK
KRAS G12S, sequence (P62937 whole entry): as the sequence (P62937 whole entry) above
KRAS G13D, sequence (P01116 1-169 isoform P01116-2 G13D limits assumed): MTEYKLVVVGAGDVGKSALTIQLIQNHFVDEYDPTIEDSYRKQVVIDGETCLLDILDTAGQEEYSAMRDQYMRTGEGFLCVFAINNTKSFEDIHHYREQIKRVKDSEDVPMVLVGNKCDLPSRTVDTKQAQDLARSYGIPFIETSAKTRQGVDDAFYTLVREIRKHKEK
KRAS G13D, sequence (P62937 whole entry): as the sequence (P62937 whole entry) above
KRAS G12V, sequence (P01116 1-169 isoform P01116-2 G12V limits assumed): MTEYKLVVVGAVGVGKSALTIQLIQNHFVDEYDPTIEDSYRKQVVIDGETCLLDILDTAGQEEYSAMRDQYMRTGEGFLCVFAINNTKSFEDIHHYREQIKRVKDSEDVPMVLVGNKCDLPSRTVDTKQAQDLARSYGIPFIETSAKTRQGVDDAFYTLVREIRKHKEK
KRAS G12V, sequence (P62937 whole entry): as the sequence (P62937 whole entry) above
KRAS WT, sequence (P01116 1-169 isoform P01116-2 limits assumed): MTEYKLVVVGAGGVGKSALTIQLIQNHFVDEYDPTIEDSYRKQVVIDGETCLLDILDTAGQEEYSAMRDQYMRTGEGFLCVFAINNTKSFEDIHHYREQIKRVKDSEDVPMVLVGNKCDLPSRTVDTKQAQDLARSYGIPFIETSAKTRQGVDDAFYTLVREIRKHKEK
KRAS WT, sequence (P62937 whole entry): as the sequence (P62937 whole entry) above
NRAS G12C, sequence (P01111 whole entry G12C): as the sequence (P01111 whole entry Q61K) above, with G12C, K61Q counted along it
NRAS G12C, sequence (P62937 whole entry): as the sequence (P62937 whole entry) above
KRAS G12D, sequence (P01116 1-169 isoform P01116-2 G12D limits assumed): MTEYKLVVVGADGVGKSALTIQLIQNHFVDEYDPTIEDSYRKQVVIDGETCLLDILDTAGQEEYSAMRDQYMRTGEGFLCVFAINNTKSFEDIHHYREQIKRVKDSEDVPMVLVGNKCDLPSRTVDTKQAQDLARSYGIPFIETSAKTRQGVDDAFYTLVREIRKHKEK
KRAS G12D, sequence (P62937 whole entry): as the sequence (P62937 whole entry) above
KRAS G12C, sequence (P01116 1-169 isoform P01116-2 G12C limits assumed): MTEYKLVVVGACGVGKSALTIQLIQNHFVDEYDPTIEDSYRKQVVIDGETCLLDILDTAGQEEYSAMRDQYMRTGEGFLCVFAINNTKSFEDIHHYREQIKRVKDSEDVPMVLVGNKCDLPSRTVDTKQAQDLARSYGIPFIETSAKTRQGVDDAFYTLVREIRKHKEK
KRAS G12C, sequence (P62937 whole entry): as the sequence (P62937 whole entry) above
KRAS G13C, sequence (P01116 1-169 isoform P01116-2 G13C limits assumed): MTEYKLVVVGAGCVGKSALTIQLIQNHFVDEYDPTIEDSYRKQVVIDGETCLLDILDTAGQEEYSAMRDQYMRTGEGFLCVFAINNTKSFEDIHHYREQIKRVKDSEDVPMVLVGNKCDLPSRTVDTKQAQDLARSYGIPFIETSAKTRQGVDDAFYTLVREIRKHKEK
KRAS G13C, sequence (P62937 whole entry): as the sequence (P62937 whole entry) above
KRAS Q61H, sequence (P01116 1-169 isoform P01116-2 Q61H limits assumed): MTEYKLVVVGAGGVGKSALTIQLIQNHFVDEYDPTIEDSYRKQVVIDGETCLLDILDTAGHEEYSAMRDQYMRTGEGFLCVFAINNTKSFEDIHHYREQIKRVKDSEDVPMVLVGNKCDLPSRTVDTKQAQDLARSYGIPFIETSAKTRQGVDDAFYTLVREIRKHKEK
KRAS Q61H, sequence (P62937 whole entry): as the sequence (P62937 whole entry) above
NRAS WT, sequence (P01111 whole entry): as the sequence (P01111 whole entry Q61K) above, with K61Q counted along it
NRAS WT, sequence (P62937 whole entry): as the sequence (P62937 whole entry) above
NRAS Q61R, sequence (P01111 whole entry Q61R): as the sequence (P01111 whole entry Q61K) above, with K61R counted along it
NRAS Q61R, sequence (P62937 whole entry): as the sequence (P62937 whole entry) above

`CCn1c(-c2cccnc2[C@H](C)OC)c2c3cc(ccc31)-c1cc(O)cc(c1)C[C@H](NC(=O)[C@H](C(C)C)N(C)C(=O)[C@]13C[C@H]1CCN3C(=O)[C@@H]1CN1)C(=O)N1CCC[C@H](N1)C(=O)OCC(C)(C)C2` [Example 166]: the IC50 was 100 to 1000 nM on KRAS G12C; 1000 to 10000 nM in the assay on AsPC-1 (K-Ras G12D) [1] (K-Ras G12D, 5-day treatment, read-out: AsPC-1 Cell Viability assay data IC50); 100 to 1000 nM at KRAS WT; 1000 to 10000 nM on NRAS Q61R; 10 to 100 nM against KRAS Q61H; 100 to 1000 nM at KRAS G13C. The IC50 against NRAS WT, on KRAS G13D, against NRAS G12C, on KRAS G12S, against KRAS G12V and against KRAS G12D was 100 to 1000 nM throughout. For the same compound, the IC50 against NRAS Q61K lay within 1000 to 10000 nM. Besides, in the assay with AsPC-1 (K-Ras G12D) [2] (ASPC1, AsPC-1 KRAS G12D, read-out: pERK EC50), the EC50 is less than 5000 nM.
Regarding `CCn1c(-c2cccnc2[C@H](C)OC)c2c3cc(ccc31)-c1cc(O)cc(c1)C[C@H](NC(=O)[C@H](C(C)C)N(C)C(=O)CNC(=O)[C@@H]1CN1)C(=O)N1CCC[C@H](N1)C(=O)OCC(C)(C)C2` [Example 147], the 50% inhibitory concentration (IC50) against KRAS G12C lay within 10 to 100 nM; in the assay on AsPC-1 (K-Ras G12D) [1] (setting [3]), 1000 to 10000 nM; on KRAS WT it was 10 to 100 nM; against KRAS G13C, 10 to 100 nM; against KRAS G13D, 100 to 1000 nM; on NRAS G12C it was 10 to 100 nM. The half-inhibitory concentration (IC50) against KRAS G12S was in the range of 10 to 100 nM; against KRAS G12V it was 10 to 100 nM; on KRAS G12D it was 100 to 1000 nM. The half-maximal effective concentration (EC50) with AsPC-1 (K-Ras G12D) [2] (ASPC1, read-out: pERK EC50) was less than 5000 nM.
Take `CCn1c(-c2cccnc2[C@H](C)OC)c2c3cc(ccc31)-c1cc(O)cc(c1)C[C@H](NC(=O)[C@H](C(C)C)N(C)C(=O)CN(C)C(=O)[C@@H]1CN1CC1COC1)C(=O)N1CCC[C@H](N1)C(=O)OCC(C)(C)C2` (stereo partly shown) [Example 278]: the half-inhibitory concentration (IC50) against KRAS G12C lay within 10 to 100 nM; in the assay on AsPC-1 (K-Ras G12D) [1] (setting [3]) it was 1000 to 10000 nM; at KRAS WT, 10 to 100 nM; against NRAS Q61R it was 100 to 1000 nM; at KRAS Q61H, 10 to 100 nM; against KRAS G13C, 10 to 100 nM. Moreover, the IC50 on NRAS WT is 10 to 100 nM; against KRAS G13D, 100 to 1000 nM; at NRAS G12C, less than 10 nM; against KRAS G12S, 10 to 100 nM; against KRAS G12V it was 10 to 100 nM; against KRAS G12D, 10 to 100 nM. This compound also registered a concentration for half-maximal inhibition (IC50) on NRAS Q61K of 100 to 1000 nM. In addition, the EC50 in the assay on AsPC-1 (K-Ras G12D) [2] (ASPC1, read-out: pERK EC50) was less than 5000 nM.
In the case of `CCn1c(-c2cccnc2[C@H](C)OC)c2c3cc(ccc31)-c1cc(O)cc(c1)C[C@H](NC(=O)[C@H](C(C)C)N(C)C(=O)[C@@H](C)N(C)C(=O)[C@H]1CN1)C(=O)N1CCC[C@H](N1)C(=O)OCC(C)(C)C2` [Example 114], the IC50 against KRAS G12C was 10 to 100 nM; in the assay with AsPC-1 (K-Ras G12D) [1] (setting [3]) it was 1000 to 10000 nM; against KRAS WT it was 1000 to 10000 nM; against KRAS G13C, 100 to 1000 nM; against KRAS G13D it was 1000 to 10000 nM; against NRAS G12C, 10 to 100 nM. In addition, the IC50 on KRAS G12S, on KRAS G12V and against KRAS G12D was 1000 to 10000 nM in each case. Further, in the assay with AsPC-1 (K-Ras G12D) [2] (ASPC1, read-out: pERK EC50), the 50% effective concentration (EC50) is less than 5000 nM.
Take `CCn1c(-c2cccnc2[C@H](C)OC)c2c3cc(ccc31)-c1cc(O)cc(c1)C[C@H](NC(=O)[C@H](C(C)C)N(C)C(=O)[C@H]1CC[C@@H](C)N1C(=O)[C@H]1CN1)C(=O)N1CCC[C@H](N1)C(=O)OCC(C)(C)C2` [Example 154]: the IC50 at KRAS G12C lay within 10 to 100 nM; with AsPC-1 (K-Ras G12D) [1] (setting [3]) it was 1000 to 10000 nM; on KRAS WT it was 100 to 1000 nM; against KRAS G13C it was 100 to 1000 nM; at KRAS G13D, 1000 to 10000 nM; at NRAS G12C, 10 to 100 nM. Moreover, the figures for the IC50 at KRAS G12S, on KRAS G12V and at KRAS G12D were 100 to 1000 nM, 100 to 1000 nM and 1000 to 10000 nM, respectively. The concentration giving a half-maximal response (EC50) with AsPC-1 (K-Ras G12D) [2] (ASPC1, read-out: pERK EC50) was less than 5000 nM.
